# Article PMC11798738, “Targeting ASK1 by CS17919 alleviates kidney‐ and liver‐related diseases in murine models” (Animal Models and Experimental Medicine, 2024)
# Read-outs that look alike come from different tables or passages of the source.
# How the values were obtained:
# [1] = tested on: L02 cells; assay: Cell protection in PA-stimulated L02 cells (Cell Titer-Glo viability); format: cell-based, human; conditions: 50 μmol/L PA, 72 h
# Method: L02 cells were cultured in DMEM medium (Gibco, 11 965 092, Carlsbad, CA, USA) supplemented with 20% FBS and 1× penicillin–streptomycin. L02 cells were inoculated in two 96‐well plates at 1E4 cells/well (200 μL). The following day, the cells were stimulated with 50 μmol/L PA (dissolved in ethanol to make a 200× stock solution and then added to the medium) and simultaneously incubated with different concentrations of CS17919 and GS‐4997 (CS17919 and GS‐4997 stock solutions were added to the well plates to reach a final concentration of 10–0.3 μmol/L). After 72 h of incubation, the original medium was removed, followed by the addition of 100 μL of new DMEM medium and 60 μL of Cell Titer‐Glo reagent per well. The cells were incubated for 5 min in the dark, and then transferred to a black permeable plate for detection using an enzyme plate reader (Tecan spark, Grödig, Austria).
# [2] = tested on: CCC‐HEL‐1; assay: MTS cytotoxicity assay, CCC-HEL-1; format: cell-based, human; conditions: 72 h
# Method: Human embryonic kidney cells (HEK‐293A), human hepatocellular carcinoma cells (HUH7), human embryonic liver diploid cells (CCC‐HEL‐1) and human embryonic lung cells (MRC‐5) were selected for the cytotoxicity study of both drugs, using the MTS assay protocol. Cells were cultured at 37°C with 5% CO2 using an appropriate medium. […] After 72 h of incubation, 30 μL of MTS solution was added to each well, and the cells were then incubated for 2–4 h in the dark. The absorbance value of each well at 490 nm was measured using an enzymatic plate reader and the IC50 for each drug and each cell line was calculated. Cell viability and cytoxicity experiments were repeated three times.
# [3] = Pharmacokinetic study in mice, oral; format: in vivo, C57BL/6J mice; conditions: mouse plasma, mean ± SD, n = 3
# Method: Male C57BL/6J mice (Beijing Huafukang Biotechnology Co., Ltd, Beijing, China) were selected at 6–8 weeks for the experiment. […] About 50–60 μL of blood and tissue were isolated in anticoagulation tubes at 15, 30 min, 1, 2, 4, 6, and 8 h after administration, respectively, and then centrifuged at 5000 r/min for 7 min at 4°C. […] The standard solution was prepared with 7 concentrations and QC with 3. The standard and QC working solutions were added to the 96‐well plate, and the protein was precipitated by adding acetonitrile solution containing the internal standard together with the sample to be tested. After shaking for 10 min and centrifugation at 12 000 × g for 10 min, the supernatants from the 96‐well plate were analyzed by LC–MS (mobile phase: 0.1% formic acid‐water 0.1% formic acid‐acetonitrile). Raw data were imported into Phoenix WinNonlin to calculate AUC, C max, T 1/2, etc.
# [4] = tested on: UUO mouse model; assay: UUO mouse model of kidney injury and fibrosis; format: in vivo, C57BL/6J mice
# Method: 55 C57BL/6J mice, male, 6–8 weeks old were purchased from Chengdu Pharmachem Biotechnology Co. (Chengdu, China) and randomly divided into 5 groups according to their body weight: Sham (n = 10), Model (n = 15), CS17919L (10 mg/kg, n = 10), CS17919H (60 mg/kg, n = 10), and GS‐4997 (30 mg/kg, n = 10). The mice were anesthetized and fixed on the operating table, and the abdominal cortex and muscles were cut in the middle of the right side of the abdomen, and the ureter was searched for along the renal hilum. The ureter was separated using a glass split‐needle and ligated at the opening of the renal pelvis and the upper 1/3 of the ureter, and the ureter was cut between the two ligatures. Finally, the muscle and skin were closed with consecutive sutures, and animals were kept under observation until they awoke. Both the Sham and the Model group received solvent (0.2% CMC‐Na + 0.1% Tween‐80) orally twice daily. CS17919 and GS‐4997 were administered by gavage twice daily at the corresponding doses for 11 days. All treatments were started one day before surgical operation. All mice were sacrificed one day after administration with overnight fasting. Blood was collected, and serum was isolated for the analysis of urea nitrogen and creatinine. The kidney of each mouse was removed, weighed and fixed in 10% formalin solution for pathological study.
# Masson staining was applied to determine kidney fibrosis in the UUO model. Thin 4 μm paraffin sections of each sample were used in this study, which followed the standard procedure. The sections were stained with Hematoxylin staining solution for 5–10 min and then washed, followed by staining with Ponceau S‐acid fuchsin stain for around 5–10 min. The sections were treated with 1% phosphomolybdic acid and Aniline Blue solution, and finally dehydrated stepwise in alcohol and sealed. VIS7.0 software was used to analyze the area of kidney fibrosis and the percentage of the fibrosis area in the scanning area was calculated.
# [5] = target: CYP 2C8 (Homo sapiens, UniProt P10632); assay: CYP inhibition in vitro; format: in vitro ADME
# Sequence of CYP 2C8 (P10632 whole entry): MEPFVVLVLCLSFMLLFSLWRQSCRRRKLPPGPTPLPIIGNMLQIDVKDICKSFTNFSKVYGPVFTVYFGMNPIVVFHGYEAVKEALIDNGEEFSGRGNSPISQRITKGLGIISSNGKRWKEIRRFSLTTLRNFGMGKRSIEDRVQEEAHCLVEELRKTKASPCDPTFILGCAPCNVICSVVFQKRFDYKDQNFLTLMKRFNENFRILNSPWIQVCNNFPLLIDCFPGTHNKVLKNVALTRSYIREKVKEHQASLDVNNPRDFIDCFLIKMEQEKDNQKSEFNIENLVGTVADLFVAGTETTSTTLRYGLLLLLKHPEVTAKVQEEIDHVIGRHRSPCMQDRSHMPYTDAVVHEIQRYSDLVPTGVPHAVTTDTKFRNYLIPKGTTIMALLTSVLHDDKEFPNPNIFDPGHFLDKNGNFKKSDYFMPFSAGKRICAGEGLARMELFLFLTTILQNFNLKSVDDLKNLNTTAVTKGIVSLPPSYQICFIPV
# [6] = target: CYP 2C19 (Homo sapiens, UniProt P33261); assay: CYP inhibition in vitro; format: in vitro ADME
# Sequence of CYP 2C19 (P33261 whole entry): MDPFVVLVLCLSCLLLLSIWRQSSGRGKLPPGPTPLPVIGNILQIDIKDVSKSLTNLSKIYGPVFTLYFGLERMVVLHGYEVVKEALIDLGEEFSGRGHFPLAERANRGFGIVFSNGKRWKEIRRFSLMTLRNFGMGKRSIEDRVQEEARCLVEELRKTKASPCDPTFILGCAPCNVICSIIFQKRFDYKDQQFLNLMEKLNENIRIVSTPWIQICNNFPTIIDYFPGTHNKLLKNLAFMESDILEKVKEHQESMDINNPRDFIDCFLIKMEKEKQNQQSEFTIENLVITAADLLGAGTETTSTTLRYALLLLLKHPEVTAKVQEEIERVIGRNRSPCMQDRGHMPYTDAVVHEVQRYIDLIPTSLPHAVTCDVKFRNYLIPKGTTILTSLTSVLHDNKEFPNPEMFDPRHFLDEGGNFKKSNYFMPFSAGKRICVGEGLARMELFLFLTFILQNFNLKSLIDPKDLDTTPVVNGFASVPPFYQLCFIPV
# [7] = target: CYP 2D6 (Homo sapiens, UniProt P10635); assay: CYP inhibition in vitro; format: in vitro ADME
# Sequence of CYP 2D6 (P10635 whole entry): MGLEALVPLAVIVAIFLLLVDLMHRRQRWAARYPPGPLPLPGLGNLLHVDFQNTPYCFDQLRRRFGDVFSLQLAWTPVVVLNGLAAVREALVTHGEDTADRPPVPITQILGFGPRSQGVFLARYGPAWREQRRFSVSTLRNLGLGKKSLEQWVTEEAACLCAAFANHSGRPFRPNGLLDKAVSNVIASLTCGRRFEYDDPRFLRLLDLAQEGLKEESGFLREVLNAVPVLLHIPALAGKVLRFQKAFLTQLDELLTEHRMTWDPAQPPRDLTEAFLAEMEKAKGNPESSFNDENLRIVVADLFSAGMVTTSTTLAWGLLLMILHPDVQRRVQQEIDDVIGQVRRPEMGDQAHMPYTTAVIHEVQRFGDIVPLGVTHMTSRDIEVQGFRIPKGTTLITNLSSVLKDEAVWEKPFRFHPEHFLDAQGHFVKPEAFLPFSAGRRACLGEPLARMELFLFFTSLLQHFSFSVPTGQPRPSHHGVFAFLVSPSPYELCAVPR
# [8] = target: CYP 1A2 (Homo sapiens, UniProt P05177)
# Sequence of CYP 1A2 (P05177 whole entry): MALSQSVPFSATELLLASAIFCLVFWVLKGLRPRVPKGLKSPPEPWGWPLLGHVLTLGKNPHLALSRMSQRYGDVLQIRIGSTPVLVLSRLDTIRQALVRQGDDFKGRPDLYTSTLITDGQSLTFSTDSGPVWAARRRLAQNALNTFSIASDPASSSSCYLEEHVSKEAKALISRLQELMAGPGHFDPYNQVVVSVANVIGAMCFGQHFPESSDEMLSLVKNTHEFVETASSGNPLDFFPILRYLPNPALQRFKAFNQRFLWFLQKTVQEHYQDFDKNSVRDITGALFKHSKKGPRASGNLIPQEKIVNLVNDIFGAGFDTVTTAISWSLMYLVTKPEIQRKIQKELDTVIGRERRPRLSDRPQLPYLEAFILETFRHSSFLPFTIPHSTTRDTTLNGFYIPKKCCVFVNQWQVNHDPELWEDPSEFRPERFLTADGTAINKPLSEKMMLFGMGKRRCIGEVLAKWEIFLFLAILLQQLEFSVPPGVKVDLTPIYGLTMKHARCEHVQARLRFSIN
# [9] = target: T1, CYP3A4 (Homo sapiens, UniProt P08684)
# T1 sequence (P08684 whole entry): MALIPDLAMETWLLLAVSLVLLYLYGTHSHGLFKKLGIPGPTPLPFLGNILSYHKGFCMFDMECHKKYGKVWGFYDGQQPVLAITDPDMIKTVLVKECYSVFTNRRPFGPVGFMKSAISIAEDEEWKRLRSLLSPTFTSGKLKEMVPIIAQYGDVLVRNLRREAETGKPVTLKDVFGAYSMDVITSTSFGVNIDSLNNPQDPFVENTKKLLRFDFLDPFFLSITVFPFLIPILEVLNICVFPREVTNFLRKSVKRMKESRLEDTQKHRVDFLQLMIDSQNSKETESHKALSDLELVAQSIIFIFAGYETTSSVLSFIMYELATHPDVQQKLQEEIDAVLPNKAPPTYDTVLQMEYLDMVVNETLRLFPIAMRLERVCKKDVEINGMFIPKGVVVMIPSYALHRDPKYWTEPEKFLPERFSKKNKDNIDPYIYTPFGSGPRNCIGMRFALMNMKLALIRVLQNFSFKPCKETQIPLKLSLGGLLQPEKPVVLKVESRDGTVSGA
# [10] = tested on: NASH mouse model; assay: CCL4- and HFD-induced NASH mouse model; format: in vivo, C57BL/6J mice; conditions: data not shown; model group 5/9
# [11] = target: T1, CYP3A4; assay: CYP inhibition in vitro; conditions: read-out: CYP3A4 (Midazolam) inhibition IC50; substrate Midazolam
# [12] = target: human ASK1 kinase (Homo sapiens, UniProt Q99683); assay: ASK1 kinase inhibition, HTRF assay; conditions: read-out: IC50, inhibition of ASK1, full-length recombinant human ASK1
# Sequence of human ASK1 kinase (Q99683 whole entry): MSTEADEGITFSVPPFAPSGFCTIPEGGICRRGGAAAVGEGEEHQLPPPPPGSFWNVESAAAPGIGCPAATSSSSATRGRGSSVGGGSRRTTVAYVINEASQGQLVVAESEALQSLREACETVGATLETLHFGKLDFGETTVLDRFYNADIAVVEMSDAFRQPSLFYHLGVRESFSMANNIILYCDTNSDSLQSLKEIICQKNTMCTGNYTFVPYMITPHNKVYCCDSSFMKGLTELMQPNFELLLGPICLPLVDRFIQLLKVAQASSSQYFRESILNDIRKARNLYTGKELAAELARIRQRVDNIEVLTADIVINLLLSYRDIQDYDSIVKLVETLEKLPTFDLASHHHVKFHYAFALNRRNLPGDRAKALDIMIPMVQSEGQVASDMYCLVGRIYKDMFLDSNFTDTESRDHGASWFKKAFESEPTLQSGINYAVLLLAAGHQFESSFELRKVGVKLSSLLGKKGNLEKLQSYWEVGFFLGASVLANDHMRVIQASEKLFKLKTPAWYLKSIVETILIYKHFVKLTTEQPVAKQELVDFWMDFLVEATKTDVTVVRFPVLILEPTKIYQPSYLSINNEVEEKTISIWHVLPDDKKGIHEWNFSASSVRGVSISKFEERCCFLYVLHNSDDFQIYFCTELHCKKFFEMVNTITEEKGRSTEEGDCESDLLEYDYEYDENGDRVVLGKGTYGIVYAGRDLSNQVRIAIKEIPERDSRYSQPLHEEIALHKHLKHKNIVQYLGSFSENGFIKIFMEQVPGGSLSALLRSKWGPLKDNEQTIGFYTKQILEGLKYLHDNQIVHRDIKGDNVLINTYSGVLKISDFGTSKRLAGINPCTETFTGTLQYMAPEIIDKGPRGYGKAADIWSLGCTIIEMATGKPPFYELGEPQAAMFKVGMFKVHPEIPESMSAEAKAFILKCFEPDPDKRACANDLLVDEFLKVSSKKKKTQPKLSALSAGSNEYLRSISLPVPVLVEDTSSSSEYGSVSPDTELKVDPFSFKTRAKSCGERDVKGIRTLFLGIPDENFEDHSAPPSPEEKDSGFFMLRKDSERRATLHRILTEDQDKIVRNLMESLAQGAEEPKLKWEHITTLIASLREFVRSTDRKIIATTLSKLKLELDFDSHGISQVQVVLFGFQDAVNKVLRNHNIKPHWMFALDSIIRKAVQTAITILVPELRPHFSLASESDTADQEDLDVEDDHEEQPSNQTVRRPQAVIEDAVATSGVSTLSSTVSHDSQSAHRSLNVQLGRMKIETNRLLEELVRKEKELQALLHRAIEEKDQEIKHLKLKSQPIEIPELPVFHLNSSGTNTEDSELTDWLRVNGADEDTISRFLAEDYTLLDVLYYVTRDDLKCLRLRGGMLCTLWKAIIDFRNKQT
# Excerpt: Enzymatic activity analysis was repeated three times. IC50 results were obtained using Prism 8.0 (GraphPad Prism Software).
# [13] = CS17919 10 and 60 mg/kg, GS-4997 30 mg/kg, gavage twice daily, 11 days
smiles,measurement,setting,value
Cc1cc(F)c(C(=O)Nc2cccc(-c3nncn3[C@H](C)C(F)(F)F)n2)cc1NC(=O)C1CC1 [CS17919],Cell protection (cell viability normalized to PA-treated cells),[1]; 0.32–10 μmol/L drug,significantly prevented apoptosis at all doses
same,Cell viability at high drug doses,[1]; 5 and 10 μmol/L drug,mild protective effect
same,Cytotoxicity (cell viability),[2],barely affected cell viability
same,Cmax,[3]; 20 mg/kg p.o.,4039 ± 646.90 ng/mL
same,MRT0–∞,[3]; 20 mg/kg p.o.,3.96 ± 0.91 h
same,T 1/2,[3]; 20 mg/kg p.o.,2.20 ± 0.74 h
same,T max,[3]; 20 mg/kg p.o.,1.50 ± 0.87 h
same,Cmax,[3]; 50 mg/kg p.o.,5741 ± 1835 ng/mL
same,MRT0–∞,[3]; 50 mg/kg p.o.,6.43 ± 1.44 h
same,T 1/2,[3]; 50 mg/kg p.o.,3.50 ± 1.86 h
same,T max,[3]; 50 mg/kg p.o.,2.00 ± 0 h
same,Area of kidney fibrosis (Masson staining),[4]; [13],tendency to reduce
same,Serum creatinine vs model group,[4]; [13],non‐significant tendency to decrease
same,Serum urea nitrogen vs model group,[4]; [13],significantly reduced
same,Inflammatory infiltration and interstitial fibrosis scores (H&E),"[4]; CS17919 high-dose group (60 mg/kg twice daily, 11 days)",improved significantly
same,IC50,[5],> 10 µM
same,IC50,[6],> 10 µM
same,IC50,[7],> 10 µM
same,IC50,[8],> 10 µM
same,IC50,[9],> 10 µM
same,Occurrence of hepatocellular carcinoma (mice affected/group),[10],3/8
same,IC50,[11],3.02 µM
same,IC50,[12],0.0225 µM
